From article PMC7961380, “A Systematic Study of the In Vitro Pharmacokinetics and Estimated Human In Vivo Clearance of Indole and Indazole-3-Carboxamide Synthetic Cannabinoid Receptor Agonists Detected on the Illicit Drug Market” (Molecules, 2021)
Where two headings read alike, the source gives them in different places.

Key:
[1] = Plasma protein binding by equilibrium dialysis; format: in vitro ADME, human; settings: 37 °C; for fraction unbound at 5 h, 10 µg mL^−1: human, pooled human plasma, pH 7.4, equilibrium dialysis 5 h
Procedure: Plasma protein binding was assessed by equilibrium dialysis in a 96-well dialysis block (HTDialysis, Ledyard, CT, USA). Dialysis membranes (12–14 kDa) were soaked in deionised water for at least 60 min. Membranes were soaked overnight at 4 °C in ethanol:water 20:80% v/v and then rinsed with deionised water immediately prior to use. […] Spiked plasma (150 µL) was dialysed against isotonic phosphate buffer (pH 7.4) (150 µL) for 5 h at 37 °C with shaking at 100 rpm. Thermal degradation controls for each test compound were kept at 37 °C and 4 °C. Blank control plasma and buffer were included in the incubation. Following incubation, dialysed plasma samples and thermal degradation controls (50 µL) were added to drug-free buffer (50 µL), and dialysed buffer samples (50 µL) were added to drug-free plasma (50 µL). […] Supernatant (150 µL) was added to 50 µL deionised water and samples were analysed by UPLC-MS/MS as described above. Dialysed buffer from each well was tested for protein contamination using BCA protein assay reagent to determine whether membranes had been compromised.
Bu = Analyte/IS ratio determined in buffer side (2) Fraction unbound, fu=(100−% bound)/100

[2] = Short-term plasma stability with and without esterase inhibitors; settings: 3 h, 37 °C; for remaining at 3 h, 5 µM: human, pH 7.4, Parent Compound Remaining (%)
Procedure: The pooled plasma used for both plasma stability and plasma binding studies originated from 50 donors, collected as whole blood from donors in the United States at an FDA-approved collection center, processed into plasma by centrifugation and immediately frozen (Innovative Research; Novi, MI, USA) and purchased from Patricell (Nottingham, UK). […] Stock solutions were prepared in DMSO. […] For incubations without inhibitor an equivalent volume of DMSO was included. Plasma mixture was pre-incubated at 37 °C for 5 min. Test compounds (5 µM) and procaine (positive control, 50 µM) were added to pre-warmed plasma mixture containing inhibitors. Incubation volume was 1 mL. Samples were mixed and 80 µL was immediately sampled and quenched into 200 µL ACN spiked with donepezil (internal standard (IS), 50 ng mL^−1). […] Peak area ratio of analyte to IS was used to determine half-lives of test compounds in plasma, both with and without the presence of esterase inhibitors.
The human plasma used was pooled from 50 donors, and was collected as whole blood from donors in
the United States at an FDA-approved collection center, processed into plasma by centrifugation and
The stability of the tested SCRAs, select metabolites and procaine control in pooled human plasma over
inhibitors bis(4-nitrophenyl) phosphate (BNPP) and phenyl methyl sulphonyl fluoride (PMSF) is

[3] = tested on: pooled human cryopreserved hepatocytes (pHHeps); assay: Metabolic stability, pooled human cryopreserved hepatocyte incubations; settings: for Predicted In Vivo Hepatic Clearance, CLH: from pHHeps CLint, well-stirred model with plasma fu, Q 21 mL min^−1 kg^−1; for T1/2: pHHeps 0.25 million cells mL^−1, 0.5 µM, 37 °C, n ≥ 3 ± SD; for Intrinsic clearance, CLint: alternative hepatocyte cell density 99x10^6 hepatocytes per gram liver
[4] = Metabolic stability, pooled human liver microsome incubations; settings: for Predicted In Vivo Hepatic Clearance, CLH: from pHLM CLint, well-stirred model with plasma fu, Q 21 mL min^−1 kg^−1; for CLint scaled at 0.5 µM / half-life at 0.5 µM: human, microsomes; for CLint scaled at 0.5 µM: pH 7.4, Intrinsic clearance; for half-life at 0.5 µM: pH 7.4, T1/2 (min)
[5] = Metabolic stability, pooled human cryopreserved hepatocyte incubations; settings: human, hepatocytes; for CLint scaled at 0.5 µM: Intrinsic clearance, pHHeps, alternative hepatocyte cell density 99x10^6 hepatocytes per gram liver; for half-life at 0.5 µM: T1/2 (min), pHHeps 0.25 million cells mL^−1, 0.5 µM, 37 °C, n ≥ 3 ± SD
[6] = equilibrium dialysis 5 h, 10 µg mL^−1
[7] = pHHeps, 99x10^6 hepatocytes per gram liver
[8] = pHLM 0.5 mg mL^−1, 0.5 µM, NADPH, 37 °C, n ≥ 3 ± SD
[9] = pHLM, alternative microsomal scaling factor 32 mg microsomal protein per gram liver
[10] = pHLM, alternative microsomal scaling factor 45 mg microsomal protein per gram liver
[11] = pHLM, scaling factor 32 mg microsomal protein per gram liver
[12] = pHLM, scaling factor 45 mg microsomal protein per gram liver
[13] = plasma, read-out: Fraction Unbound (fu)
[14] = Esterase Inhibitors, pH 7.4, BNPP and PMSF 500 µM each
[15] = plasma, No Esterase Inhibitors, pH 7.4, pooled human plasma

Compound | PPB (%) [1, 6] [%] | Predicted In Vivo Hepatic Clearance, CLH [3] [mL/min/kg] | Hepatic extraction ratio, EH ([3]; from pHHeps incubations) | T1/2 [3] [min] | % parent compound remaining, Average ([3]; pHHeps, 3 min) [%] | % parent compound remaining, Average ([3]; pHHeps, 6 min) [%] | % parent compound remaining, Average ([3]; pHHeps, 9 min) [%] | % parent compound remaining, Average ([3]; pHHeps, 15 min) [%] | % parent compound remaining, Average ([3]; pHHeps, 30 min) [%] | % parent compound remaining, Average ([3]; pHHeps, 45 min) [%] | % parent compound remaining, Average ([3]; pHHeps, 60 min) [%] | % parent compound remaining, Average ([4]; pHLM, 3 min) [%] | % parent compound remaining, Average ([4]; pHLM, 6 min) [%] | % parent compound remaining, Average ([4]; pHLM, 9 min) [%] | % parent compound remaining, Average ([4]; pHLM, 15 min) [%] | % parent compound remaining, Average ([4]; pHLM, 30 min) [%] | Microsomal Intrinsic Clearance, CLint micr ([4]; pHLM, n ≥ 3 ± SD) | CLint scaled at 0.5 µM [4, 9] [mL/min/kg] | CLint scaled at 0.5 µM [4, 10] [mL/min/kg] | half-life at 0.5 µM [4, 8] [min] | also measured
C=CCCCn1cc(C(=O)N[C@@H](C(=O)OC)C(C)(C)C)c2ccccc21 [(R)-MDMB-4en-PICA (12), methyl 3,3-dimethyl-2-[1-(pent-4-en-1-yl)-1H-indole-3-carboxamido]butanoate] | 94.7 ± 1.11 | 6.42 ± 0.62 | 0.31 ± 0.029 | 44 ± 6.3 | 90.1 | 81.5 | 83.7 | 79.3 | 61.6 | 46.4 | 40.6 | 67.7 | 47.7 | 31.7 | 13.8 | 1.7 | 0.260 ± 0.040 mL min^−1 mg Microsomal Protein^−1 |  |  |  | Fraction Unbound (fu) ([1]; equilibrium dialysis 5 h, plasma): 0.053 ± 0.0111; Parent Compound Remaining (%), Esterase Inhibitors ([2]; pH 7.4, BNPP and PMSF 500 µM each): 87.7 ± 11.0%; Parent Compound Remaining (%), No Esterase Inhibitors ([2]; pH 7.4, pooled human plasma): 90.3 ± 5.4%; Hepatic extraction ratio, EH [3, 7]: 0.29 ± 0.028; Predicted in vivo hepatic clearance, CLH [3, 7]: 6.08 ± 0.60 mL/min/kg; Intrinsic clearance, CLint ([3]; pHHeps): 162 ± 22.16 mL/min/kg; Predicted In Vivo Hepatic Clearance, CLH [4]: 9.81 ± 0.75 mL/min/kg; Hepatic extraction ratio, EH ([4]; from pHLM incubations): 0.47 ± 0.036; T1/2 [4, 8]: 5.4 ± 0.74 min; Intrinsic clearance, CLint [4, 9]: 213 mL/min/kg; Intrinsic clearance, CLint [4, 10]: 300 mL/min/kg; Hepatic extraction ratio, EH [4, 11]: 0.35 ± 0.033; Predicted in vivo hepatic clearance, CLH [4, 11]: 7.32 ± 0.70 mL/min/kg; Hepatic extraction ratio, EH [4, 12]: 0.43 ± 0.035; Predicted in vivo hepatic clearance, CLH [4, 12]: 9.01 ± 0.74 mL/min/kg
COC(=O)[C@H](NC(=O)c1nn(Cc2ccc(F)cc2)c2ccccc12)C(C)(C)C [(R)-MDMB-FUBINACA (6)] |  |  |  |  | 93.0 | 82.9 | 77.6 | 70.2 | 53.1 | 57.7 | 41.1 | 77.3 | 75.0 | 70.2 | 57.2 | 33.3 | 0.071 ± 0.009 mL min^−1 mg Microsomal Protein^−1 | 58.2 | 81.8 ± 10.5 | 20 ± 2.5 | CLint scaled at 0.5 µM [5]: 221 mL/min/kg; half-life at 0.5 µM [5]: 32 ± 5.4 min
COC(=O)[C@@H](NC(=O)c1nn(CCCCF)c2ccccc12)C(C)(C)C [(S)-4F-MDMB-BINACA (4), methyl 2-[1-(4-fluorobutyl)-1H-indazole-3-carboxamido]-3,3-dimethylbutanoate] | 93.9 ± 0.28 | 12.08 ± 0.23 | 0.58 ± 0.011 | 16 ± 0.74 | 82.3 | 73.7 | 69.2 | 53.9 | 25.8 | 12.5 | 6.2 | 74.9 | 63.6 | 50.4 | 32.7 | 17.0 | 0.143 ± 0.025 mL min^−1 mg Microsomal Protein^−1 | 118 | 165 | 9.9 ± 1.9 | fraction unbound at 5 h, 10 µg mL^−1 [1, 13]: 0.061 ± 0.0028; remaining at 3 h, 5 µM [2, 14]: 96 ± 2.9%; remaining at 3 h, 5 µM [2, 15]: 93.1 ± 5.1%; Hepatic extraction ratio, EH [3, 7]: 0.56 ± 0.011; Predicted in vivo hepatic clearance, CLH [3, 7]: 11.68 ± 0.24 mL/min/kg; Intrinsic clearance, CLint ([3]; pHHeps): 432 ± 20.0 mL/min/kg; Predicted In Vivo Hepatic Clearance, CLH [4]: 7.51 ± 0.88 mL/min/kg; Hepatic extraction ratio, EH ([4]; from pHLM incubations): 0.36 ± 0.042; Hepatic extraction ratio, EH [4, 11]: 0.25 ± 0.034; Predicted in vivo hepatic clearance, CLH [4, 11]: 5.33 mL/min/kg; Predicted in vivo hepatic clearance, CLH [4, 12]: 6.78 mL/min/kg
CC(C)[C@H](NC(=O)c1nn(CC2CCCCC2)c2ccccc12)C(N)=O [(S)-AB-[…] (11), N-[1-amino-3-methyl-1-oxobutan-2-yl]-1-(cyclohexylmethyl)-1H-indazole-3-carboxamide] |  |  |  |  |  |  |  |  |  |  |  |  |  |  |  |  |  | 42.1 | 59.2 | 27 ± 2.9 | fraction unbound at 5 h, 10 µg mL^−1 ([1]; 10 µg mL^−1, read-out: PPB (%) (converted)): 0.028; fraction unbound at 5 h, 10 µg mL^−1 [1, 13]: 0.028 ± 0.0219; remaining at 3 h, 5 µM [2, 14]: 97.9 ± 7%; remaining at 3 h, 5 µM [2, 15]: 98.2 ± 7.2%; CLint scaled at 0.5 µM [5]: 194 mL/min/kg; half-life at 0.5 µM [5]: 39 ± 8.8 min
